For data set [1] the following is noted: pH 2.3.
The test system of another data set is Puccinia recondite. The experiment in a line: Puccinia test (wheat) / protective. The format is in vivo. To be noted: 240 h, read-out: efficacy. The procedure: Puccinia Test (Wheat)/Protective
(§1) To produce a suitable preparation of active compound, 1 part by weight of active compound is mixed with the stated amounts of solvent and emulsifier, and the concentrate is diluted with water to the desired concentration.
To test for protective activity, young plants are sprayed with the active compound preparation at the stated application rate. After the spray coating has dried on, the plants are sprayed with a conidia suspension of Puccinia recondite. The plants remain in an incubation cabin at 20° C. and 100% relative atmospheric humidity for 48 hours. The plants are then placed in a greenhouse at a temperature of about 20° C. and a relative atmospheric humidity of 80% to promote the development of rust pustules.
Evaluation is carried out 10 days after the inoculation. 0% means an efficacy which corresponds to that of the control, whereas an efficacy of 100% means that no infection is observed.

Data set [2] has as its system Erysiphe graminis f.sp. hordei. The experiment in a line: Erysiphe test (barley) / protective. In kind it is in vivo. To be noted: Blumeria graminis, 168 h, read-out: efficacy. The procedure:
Erysiphe Test (Barley)/Protective
as §1
To test for protective activity, young plants are sprayed with the active compound preparation at the stated application rate. After the spray coating has dried on, the plants are dusted with spores of Erysiphe graminis f.sp. hordei. The plants are placed in a greenhouse at a temperature of about 20° C. and a relative atmospheric humidity of about 80% to promote the development of mildew pustules.
Evaluation is carried out 7 days after the inoculation. 0% means an efficacy which corresponds to that of the control, whereas an efficacy of 100% means that no infection is observed.

The subject of a further data set is Sphaerotheca fuliginea. The experiment in a line: Sphaerotheca test (cucumber) / protective. The format is in vivo. To be noted: Podosphaera fuliginea, 168 h, read-out: efficacy. On the procedure: Sphaerotheca Test (Cucumber)/Protective [table] To produce a suitable preparation of active compound, 1 part by weight of active compound is mixed with the stated amounts of solvent and emulsifier, and the concentrate is diluted with water to the desired concentration. To test for protective activity, young cucumber plants are sprayed with the active compound preparation at the stated application rate. 1 day after the treatment, the plants are inoculated with a spore suspension of Sphaerotheca fuliginea.

[3] abbreviates: wheat, protective, active compound concentration 1000 ppm, evaluation 10 days after inoculation.
Where [4] appears, read: barley, protective, active compound concentration 1000 ppm, evaluation 7 days after inoculation.
The mark [5] stands for this setting: cucumber, protective, active compound concentration 500 ppm, evaluation 7 days after inoculation.

These results are taken from US8299301B2 (priority 2007, dated 2012).

A word on the logP: it is a log measure of how a compound divides between an organic and an aqueous phase. High values mean a more lipophilic compound, low ones a more hydrophilic compound.

Read-outs that look alike come from different tables or passages of the source.

“4-(3-tertButylphenoxy)-5-trifluoromethyl-2-methylnitrobenzene”: the “log P (pH2.3)” value in data set [1] is 5.68.

Compound `Cc1cc(Oc2cccc(C(C)(C)C)c2)c(C(F)(F)F)cc1N` [4-(3-tertButylphenoxy)-5-trifluoromethyl-2-methylaniline] displayed a logP in the data set “logP determination” (pH 2.3, log P (pH2.3), pH 2.3) of 4.67.

As for `Cc1c([N+](=O)[O-])ccc(Cl)c1C(F)(F)F` [4-Chloro-3-trifluoromethyl-2-methylnitrobenzene], the “log P (HCOOH)” value in the data set “logP determination” (HCOOH) came out at 3.60.

In turn, `CCN(C)C=Nc1cc(CF)c(Oc2ccc(Cl)c(C(C)(C)C)c2)cc1C` [Compound 1, N-ethyl-N-methyl-N′-[4-(3-tert-butyl-4-chlorophenoxy)-5-fluoromethyl-2-methylphenyl]formamidine] had a logP in the data set “logP determination” (logP acid, acid) of 2.93. The pest or weed control at 1000 ppm (in the data set on Puccinia recondite (setting [3]); in data set [2] (setting [4])) was ≥ 70% throughout.

With `CCN(C)C=Nc1cc(CF)c(-c2ccc(C(C)(C)C)cc2)cc1C` [Compound 2, N-ethyl-N-methyl-N′-[4-(4-tert-butylphenyl)-5-fluoromethyl-2-methylphenyl]formamidine], the logP in “logP determination” (logP acid, acid) worked out at 2.67. Further, the pest or weed control at 1000 ppm (with Puccinia recondite (setting [3]); in data set [2] (setting [4])) was ≥ 70% in each case.

Turning to `CCN(C)C=Nc1cc(C(F)(F)F)c(Oc2ccc(Cl)c(C(C)(C)C)c2)cc1C` [Compound 3, N-ethyl-N-methyl-N′-[4-(3-tert-butyl-4-chlorophenoxy)-5-trifluoromethyl-2-methylphenyl]formamidine], the log partition coefficient (logP) in the data set “logP determination” (logP acid, acid) was 3.26; in “logP determination” (logP neutral, neutral) it was 6.68. Moreover, in the data set with Sphaerotheca fuliginea (setting [5]), the pest or weed control at 500 ppm is ≥ 70%. For the same compound, the pest or weed control at 1000 ppm (in the data set with Puccinia recondite (setting [3]); in data set [2] (setting [4])) was ≥ 70% throughout.

On to `CCN(C)C=Nc1cc(C(F)(F)F)c(Oc2cccc(C(C)C)c2)cc1C` [Compound 4, N-ethyl-N-methyl-N′-[4-(3-iso-propylphenoxy)-5-trifluoromethyl-2-methylphenyl]formamidine], for which the logP in the data set “logP determination” (logP acid, acid) came out at 2.65; in the data set “logP determination” (logP neutral, neutral), 5.74. Further, in the data set with Sphaerotheca fuliginea, the pest or weed control at 500 ppm is ≥ 70%. Moreover, the pest or weed control at 1000 ppm (in the data set with Puccinia recondite; in data set [2]) was ≥ 70% in each case.

For `CCN(C)C=Nc1cc(C(F)(F)F)c(Oc2ccc(Cl)c(C(F)(F)F)c2)cc1C` [Compound 5, N-ethyl-N-methyl-N′-[4-(3-trifluoromethyl-4-chlorophenoxy)-5-trifluoromethyl-2-methylphenyl]formamidine], the logP in “logP determination” (logP acid, acid) turned out to be 2.81; in the data set “logP determination” (logP neutral, neutral), 5.77. The pest or weed control at 500 ppm in the data set on Sphaerotheca fuliginea (setting [5]) is ≥ 70%.

`CCCN(C)C=Nc1cc(C(F)(F)F)c(Oc2ccc(Cl)c(C(F)(F)F)c2)cc1C` [Compound 6, N-propyl-N-methyl-N′-[4-(3-trifluoromethyl-4-chlorophenoxy)-5-trifluoromethyl-2-methylphenyl]formamidine]: the logP is 3.01 in “logP determination” (logP acid, acid) and 6.15 in “logP determination” (logP neutral, neutral). Further, the pest or weed control at 500 ppm in the data set on Sphaerotheca fuliginea (setting [5]) is ≥ 70%. Besides, the pest or weed control at 1000 ppm (with Puccinia recondite (setting [3]); in data set [2] (setting [4])) was ≥ 70% each time.

With `Cc1cc(Oc2ccc(Cl)c(C(F)(F)F)c2)c(C(F)(F)F)cc1N=CN1CCCCC1` [Compound 7, N-piperidinyl-N′-[4-(3-trifluoromethyl-4-chlorophenoxy)-5-trifluoromethyl-2-methylphenyl]formamidine], in “logP determination” (acid), the logP acid turned out to be 2.98. Also, in “logP determination” (neutral), the logP neutral was 6.19.

In the case of `Cc1cc(Oc2ccc(Cl)c(C(C)(C)C)c2)c(C(F)(F)F)cc1N=CN(C)C` [Compound 8, N,N-dimethyl-N′-[4-(3-tert-butyl-4-chlorophenoxy)-5-trifluoromethyl-2-methylphenyl]formamidine], the logP worked out at 3.13 in the data set “logP determination” (logP acid, acid) and 6.3 in the data set “logP determination” (logP neutral, neutral). The pest or weed control at 500 ppm with Sphaerotheca fuliginea (setting [5]) was ≥ 70%. Also, the pest or weed control at 1000 ppm (with Puccinia recondite (setting [3]); in data set [2] (setting [4])) was ≥ 70% in each case.

For `CCN(C)C=Nc1cc(C(F)F)c(Oc2ccc(Cl)c(C(C)(C)C)c2)cc1C` [Compound 9, N-ethyl-N-methyl-N′-[4-(3-tert-butyl-4-chlorophenoxy)-5-difluoromethyl-2-methylphenyl]formamidine], the logP in “logP determination” (logP acid, acid) came out at 2.82. Also, the pest or weed control at 500 ppm with Sphaerotheca fuliginea (setting [5]) was ≥ 70%. Moreover, the pest or weed control at 1000 ppm (in the data set on Puccinia recondite (setting [3]); in data set [2] (setting [4])) was ≥ 70% each time.

Compound `CCN(C)C=Nc1cc(C(F)F)c(Oc2ccc(Cl)c(Cl)c2)cc1C` [Compound 10, N-ethyl-N-methyl-N′-[4-(3,4-dichlorophenoxy)-5-difluoromethyl-2-methylphenyl]formamidine] returned a logP in the data set “logP determination” (logP acid, acid) of 2.31. In addition, in the data set with Sphaerotheca fuliginea, the pest or weed control at 500 ppm is ≥ 70%. The pest or weed control at 1000 ppm (with Puccinia recondite; in data set [2]) was ≥ 70% in each case.

As to `CCN(C)C=Nc1cc(C(F)(F)F)c(Oc2cccc(C(C)(C)C)c2)cc1C` [Compound 11, N-ethyl-N-methyl-N′-[4-(3-tert-butylphenoxy)-5-trifluoromethyl-2-methylphenyl]formamidine], the logP was found to be 2.52 in “logP determination” (logP acid, acid); 6.04 in the data set “logP determination” (logP neutral, neutral); 2.52 in “logP determination” (pH 2.3, log P (pH2.3), pH 2.3).

`CCN(C)C=Nc1cc(C(F)(F)F)c(-c2ccc(C(C)(C)C)cc2)cc1C` [Compound 12]: the logP was found to be 2.74 in “logP determination” (logP acid, acid) and 6.15 in the data set “logP determination” (logP neutral, neutral). Moreover, in the data set on Sphaerotheca fuliginea, the pest or weed control at 500 ppm is ≥ 70%. Further, the pest or weed control at 1000 ppm (with Puccinia recondite; in data set [2]) was ≥ 70% throughout.

In the case of `CCN(C)C=Nc1cc(C(F)F)c(Oc2ccccc2)cc1C` [Compound 13, N-ethyl-N-methyl-N′-[4-phenoxy-5-difluoromethyl-2-methylphenyl]formamidine], the logP in “logP determination” (logP acid, acid) worked out at 1.73. Moreover, the pest or weed control at 500 ppm in the data set on Sphaerotheca fuliginea was ≥ 70%.

Consider `Cc1cc(Oc2cccc(C(C)C)c2)c(C(F)F)cc1N=CN1CCCCC1` [Compound 14, N-piperidinyl-N'-[4-(3-iso-propylphenoxy)-5-difluoromethyl-2-methylphenyl]formamidine], for which the logP acid in “logP determination” (acid) was 2.60.

On to `CCN(C)C=Nc1cc(C(F)F)c(Oc2cccc(C(C)O)c2)cc1C` (centres unmarked) [Compound 15, N-ethyl-N-methyl-N′-{4-[3-(1-hydroxyethyl)-phenoxy]-5-difluoromethyl-2-methylphenyl}formamidine], for which, in the data set “logP determination” (logP acid, acid), the logP was 1.65. In the data set with Sphaerotheca fuliginea, the pest or weed control at 500 ppm is ≥ 70%.

`CCN(C)C=Nc1cc(C(F)F)c(Oc2cccc(C(C)F)c2)cc1C` (centres unmarked) [Compound 16, N-ethyl-N-methyl-N′-{4-[3-(1-fluoroethyl)-phenoxy]-5-difluoromethyl-2-methylphenyl}formamidine] had a logP in “logP determination” (logP acid, acid) of 2.17. Moreover, in the data set on Sphaerotheca fuliginea (setting [5]), the pest or weed control at 500 ppm was ≥ 70%.

Take `CCN(C)C=Nc1cc(C(F)F)c(Oc2ccc(Cl)c(C(C)C)c2)cc1C` [Compound 17, N-ethyl-N-methyl-N′-[4-(3-isopropyl-4-chlorophenoxy)-5-difluoromethyl-2-methylphenyl]formamidine]: in “logP determination” (logP acid, acid), the logP worked out at 2.97.

For the compound `CCN(C)C=Nc1cc(C(F)F)c(Oc2cccc(C(C)C)c2)cc1C` [Compound 18, N-ethyl-N-methyl-N′-[4-(3-iso-propylphenoxy)-5-difluoromethyl-2-methylphenyl]formamidine], the logP in the data set “logP determination” (logP acid, acid) was 2.5.
